We go through 20 compounds from patent US9090593B2, “Bicyclic compounds as Pim inhibitors” (AMGEN INC., priority 2010, dated 2015).

Assay [1] deals with T1, full length recombinant Pim-3 protein (Homo sapiens, UniProt Q86V86).
T1 construct: by full length recombinant Pim-1, Pim-2, or Pim-3 protein; purchased Millipore (UK)
In words: Pim-3 enzyme assay (HTRF, phosphorylation of biotinylated-BAD (S112) peptide). It counts as biochemical. The note with it: read-out: Pim3 IC50. Put shortly: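 Full-length recombinant Pim-3 phosphorylates biotinylated BAD (S112) peptide in 60 mM Hepes pH 7.0, 0.05% BSA, 2 mM DTT; reaction stopped with 3 mM EDTA. Phospho-BAD detected by HTRF (Eu anti-phospho-BAD S112 antibody, streptavidin-APC). IC50 from percent-of-control values fitted to a 4-parameter logistic model.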
In general terms: In TR-FRET formats the signal depends on donor and acceptor labels being close together.

For assay [2], the target named is T2, full length recombinant Pim-1 protein (Homo sapiens, UniProt P11309).
T2 construct: by full length recombinant Pim-1, Pim-2, or Pim-3 protein; hexahistidine tag followed by a thrombin cleavage site (N); made in house; host or cells: Sf9 (baculovirus) or E. coli (pET28)
T2 sequence (P11309 whole entry): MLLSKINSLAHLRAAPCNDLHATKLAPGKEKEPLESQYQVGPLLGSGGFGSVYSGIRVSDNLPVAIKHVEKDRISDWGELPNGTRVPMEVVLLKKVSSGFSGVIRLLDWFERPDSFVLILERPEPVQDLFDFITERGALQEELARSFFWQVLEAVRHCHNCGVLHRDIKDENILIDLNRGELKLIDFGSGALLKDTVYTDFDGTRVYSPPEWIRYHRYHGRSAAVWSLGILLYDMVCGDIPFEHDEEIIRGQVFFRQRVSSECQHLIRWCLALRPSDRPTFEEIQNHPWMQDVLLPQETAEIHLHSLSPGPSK
In words: Pim-1 enzyme assay (HTRF, phosphorylation of biotinylated-BAD (S112) peptide). The note with it: enzyme assay, Pim-1; read-out: Pim_1_IC50. It counts as biochemical. The procedure, abridged:
(§1)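 Kinase: full-length human Pim-1/Pim-2, His6-thrombin tagged. Substrate biotin-BAD (S112) peptide. Buffer 60 mM Hepes pH 7.0, 0.05% BSA, 2 mM DTT. Stop 3 mM EDTA. Detection HTRF (Eu anti-pBAD/SA-APC). IC50 by 4-parameter logistic on POC.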

The target of assay [3] is T3, Pim-1 stably transfected into the U2OS human osteogenic sarcoma line (Homo sapiens, UniProt P11309).
T3 construct: expressed in transfected cells; host or cells: U2OS human osteogenic sarcoma line
T3 sequence (P11309 whole entry): as above
Put plainly: Pim cell assay, phospho-BAD normalized against total BAD, U2OS stably transfected with Pim-1. It counts as cell-based. The note with it: read-out: Pim1_Cell_IC50. Put shortly:
(§2)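 U2OS cells stably expressing Pim-1 or Pim-2 were plated overnight at 37 °C, then dosed over a 10-point curve (final 0.3% DMSO; DMSO alone as high control). Lysates assayed for phospho- and total BAD by Meso Scale immunoassay; % phosphoprotein = (2×phospho)/(phospho+total)×100.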

For assay [4], the target named is T4, Pim-2 stably transfected into the U2OS human osteogenic sarcoma line (Homo sapiens, UniProt Q9P1W9).
T4 construct: expressed in transfected cells; host or cells: U2OS human osteogenic sarcoma line
T4 sequence (Q9P1W9 whole entry): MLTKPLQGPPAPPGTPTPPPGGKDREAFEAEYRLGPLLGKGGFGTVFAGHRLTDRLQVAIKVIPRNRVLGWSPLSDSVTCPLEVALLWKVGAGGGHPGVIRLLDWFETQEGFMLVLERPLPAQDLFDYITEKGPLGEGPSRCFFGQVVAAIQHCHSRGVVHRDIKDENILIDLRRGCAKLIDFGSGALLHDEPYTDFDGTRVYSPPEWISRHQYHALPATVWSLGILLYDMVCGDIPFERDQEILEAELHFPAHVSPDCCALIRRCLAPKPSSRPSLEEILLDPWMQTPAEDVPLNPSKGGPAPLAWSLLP
In words: Pim cell assay, phospho-BAD normalized against total BAD, U2OS stably transfected with Pim-2. Further: high dose 31.6 µM. It counts as cell-based. The note with it: read-out: Pim2_Cell_IC50. Put shortly: as §2

Assay [5] has as its target T5, full length recombinant Pim-2 protein (Homo sapiens, UniProt Q9P1W9).
T5 construct: by full length recombinant Pim-1, Pim-2, or Pim-3 protein; hexahistidine tag followed by a thrombin cleavage site (N); made in house; host or cells: Sf9 (baculovirus) or E. coli (pET28)
In words: Pim-2 enzyme assay (HTRF, phosphorylation of biotinylated-BAD (S112) peptide). It counts as biochemical. The note with it: enzyme assay, Pim-2; read-out: Pim2_IC50. Put shortly: as §1

Where [6] appears, read: U2OS cells stably transfected with Pim-1, phospho-BAD, high dose […].
Setting [7] is: U2OS cells stably transfected with Pim-2, phospho-BAD, high dose […].

Read-outs that look alike come from different tables or passages of the source.

T5 sequence (Q9P1W9 whole entry): as above

In the case of `Fc1cccc(F)c1-c1ccc2[nH]cc(-c3nccc(OC4CCNCC4)n3)c2c1` [Example 211, 5-(2,6-difluorophenyl)-3-(4-(4-piperidinyloxy)-2-pyrimidinyl)-1H-indole], the IC50 was 61 nM in assay [1]; 86 nM in assay [2]; 3790 nM in assay [3]; over 31600 nM in assay [4]; 445 nM in assay [5].
Regarding `Fc1cccc(F)c1-c1ccc2[nH]nc(-c3cncc(Nc4ccccc4)n3)c2c1` [Example 184, 6-(5-(2,6-difluorophenyl)-1H-indazol-3-yl)-N-phenyl-2-pyrazinamine], the IC50 in assay [1] is 233 nM; in assay [2], 139 nM; in assay [3] (setting [6]), over 31600 nM; in assay [4] (setting [7]) it was over 31600 nM; in assay [5], 1040 nM.
With `NC1CCN(c2cncc(-c3c[nH]c4ccc(-c5c(F)cccc5F)cc34)n2)CC1` [Example 22, 1-(6-(5-(2,6-difluorophenyl)-1H-indol-3-yl)pyrazin-2-yl)piperidin-4-amine], the IC50 is 5 nM in assay [1]; 2 nM in assay [2]; 439 nM in assay [3] (setting [6]); 7110 nM in assay [4] (setting [7]); 18 nM in assay [5].
For `NC1CCN(c2cncc(-c3c[nH]c4ccc(-c5ccccc5F)nc34)c2)CC1` [Example 34, 1-(5-(5-(2-fluorophenyl)-1H-pyrrolo[3,2-b]pyridin-3-yl)pyridin-3-yl)piperidin-4-amine], the IC50 in assay [1] is 29 nM; in assay [2], 27 nM; in assay [3], 1010 nM; in assay [4], over 31600 nM; in assay [5] it was 380 nM.
With `NC1CCN(c2cncc(-c3n[nH]c4ccc(-c5cc(C(=O)Nc6ccccc6)ccc5F)cc34)n2)CC1` [Example 45, 3-(3-(6-(4-amino-1-piperidinyl)-2-pyrazinyl)-1H-indazol-5-yl)-4-fluoro-N-phenylbenzamide], the IC50 was 8 nM in assay [1]; 12 nM in assay [2]; 1560 nM in assay [3] (setting [6]); over 31600 nM in assay [4] (setting [7]); 23 nM in assay [5].
As to `Fc1cncc(-c2ccc3[nH]nc(-c4cncc(O[C@@H]5CCCNC5)n4)c3c2)c1` [Example 115, 5-(5-fluoro-3-pyridinyl)-3-(6-((3R)-3-piperidinyloxy)-2-pyrazinyl)-1H-indazole], the IC50 in assay [1] was 20 nM; in assay [2], 33 nM; in assay [3] (setting [6]), 958 nM; in assay [4] (setting [7]), over 31600 nM; in assay [5] it was 155 nM.
Turning to `C[C@H]1CCNC[C@@H]1Oc1cncc(-c2n[nH]c3ccc(-c4c(F)cccc4F)cc23)n1` [Example 198, 5-(2,6-difluorophenyl)-3-(6-(((3R,4S)-4-methyl-3-piperidinyl)oxy)-2-pyrazinyl)-1H-indazole], the IC50 worked out at 5 nM in assay [1]; 4 nM in assay [2]; 146 nM in assay [3] (setting [6]); 5090 nM in assay [4] (setting [7]); 13 nM in assay [5].
Consider `CC(C)Nc1cncc(-c2n[nH]c3ccc(-c4c(F)cccc4F)cc23)n1` [Example 182, 6-(5-(2,6-difluorophenyl)-1H-indazol-3-yl)-N-(1-methylethyl)-2-pyrazinamine], for which the IC50 was 49 nM in assay [1]; 40 nM in assay [2]; 2460 nM in assay [3] (setting [6]); over 31600 nM in assay [4] (setting [7]); 556 nM in assay [5].
Taken in the same sequence, the figures for `NC1CCN(c2cncc(-c3n[nH]c4ccc(-c5ccn[nH]5)cc34)n2)CC1` [Example 80, 1-(6-(5-(1H-pyrazol-5-yl)-1H-indazol-3-yl)-2-pyrazinyl)-4-piperidinamine] were 1 nM, 3 nM, 2380 nM, over 31600 nM and 15 nM.
On to `NC1CCN(c2cncc(-c3n[nH]c4ccc(-c5ccc6nccnc6c5)cc34)n2)CC1` [Example 56, 1-(6-(5-(6-quinoxalinyl)-1H-indazol-3-yl)-2-pyrazinyl)-4-piperidinamine], for which the IC50 in assay [1] is 1 nM; in assay [2], 2 nM; in assay [3] (setting [6]), 130 nM; in assay [4] (setting [7]) it was over 31600 nM; in assay [5] it was 15 nM.
Take `Fc1cccc(F)c1-c1ccc2[nH]cc(-c3cncc(N[C@@H]4CCCNC4)n3)c2c1` [Example 207, 6-(5-(2,6-difluorophenyl)-1H-indol-3-yl)-N-((3R)-3-piperidinyl)-2-pyrazinamine]: the IC50 came to 4 nM in assay [1]; 1 nM in assay [2]; 102 nM in assay [3] (setting [6]); 3030 nM in assay [4] (setting [7]); 11 nM in assay [5].
Regarding `N#Cc1ccccc1-c1ccc2[nH]nc(-c3cncc(N4CCC(N)CC4)n3)c2c1` [Example 60, 2-(3-(6-(4-amino-1-piperidinyl)-2-pyrazinyl)-1H-indazol-5-yl)benzonitrile], the IC50 in assay [1] is 4 nM; in assay [2], 5 nM; in assay [3] (setting [6]), 419 nM; in assay [4] (setting [7]), 12800 nM; in assay [5] it was 36 nM.
Consider `CC(C)Oc1cncc(-c2ccc3[nH]cc(-c4ccc5cn[nH]c5c4)c3c2)n1` [Example 221, 6-(5-(6-(1-methylethoxy)-2-pyrazinyl)-1H-indol-3-yl)-1H-indazole], for which the IC50 in assay [1] is 33 nM; in assay [2] it was 50 nM; in assay [3] it was 1920 nM; in assay [4] it was over 31600 nM; in assay [5], 506 nM.
As to `N[C@H]1CCCN(c2cncc(-c3c[nH]c4ccc(-c5c(F)cccc5F)cc34)n2)C1` [Example 201, (3S)-1-(6-(5-(2,6-difluorophenyl)-1H-indol-3-yl)-2-pyrazinyl)-3-piperidinamine], the IC50 was 5 nM in assay [1]; 1 nM in assay [2]; 611 nM in assay [3] (setting [6]); over 31600 nM in assay [4] (setting [7]); 66 nM in assay [5].
Taken in the same sequence, the figures for `NC1CCN(c2cncc(-c3n[nH]c4ccc(-c5cn6ccnc6cn5)cc34)n2)CC1` [Example 99, 1-(6-(5-imidazo[1,2-a]pyrazin-6-yl-1H-indazol-3-yl)-2-pyrazinyl)-4-piperidinamine] were 5 nM, 3 nM, 4720 nM, over 31600 nM and 57 nM.
Turning to `COc1cncc(-c2ccc3[nH]nc(-c4cnc(N5CCC(N)CC5)s4)c3c2)c1` [Example 31, 1-(5-(5-(5-Methoxypyridin-3-yl)-1H-indazol-3-yl)thiazol-2-yl)piperidin-4-amine], the IC50 in assay [1] was determined as 4 nM; in assay [2], 9 nM; in assay [3], 600 nM; in assay [4], 21600 nM; in assay [5], 326 nM.
For the compound `NC1CCN(c2cncc(-c3n[nH]c4ccc(-c5cc6ccccc6nc5Cl)cc34)n2)CC1` [Example 48, 1-(6-(5-(2-chloro-3-quinolinyl)-1H-indazol-3-yl)-2-pyrazinyl)-4-piperidinamine], the IC50 in assay [1] is 27 nM; in assay [2], 44 nM; in assay [3] (setting [6]), 1110 nM; in assay [4] (setting [7]), over 31600 nM; in assay [5], 285 nM.
For the compound `NC1CCN(c2cncc(-c3n[nH]c4ccc(N5CCCC5=O)cc34)n2)CC1` [Example 8, 1-(3-(6-(4-Aminopiperidin-1-yl)pyrazin-2-yl)-1H-indazol-5-yl)pyrrolidin-2-one], the IC50 in assay [1] was 6 nM; in assay [2], 12 nM; in assay [3] (setting [6]) it was 2440 nM; in assay [4] (setting [7]), over 31600 nM; in assay [5] it was 41 nM.
`CC(C)Oc1cncc(-c2ccc3[nH]cc(-c4cncc(N[C@@H]5CCCNC5)n4)c3c2)n1` [Example 25, (R)-6-(5-(6-isopropoxypyrazin-2-yl)-1H-indol-3-yl)-N-(piperidin-3-yl)pyrazin-2-amine]: the IC50 in assay [1] was found to be 15 nM; in assay [2], 4 nM; in assay [3] it was 405 nM; in assay [4], 24700 nM; in assay [5] it was 198 nM.
Consider `CCCNC(=O)c1ccc(F)c(-c2ccc3[nH]nc(-c4cncc(N5CCC(N)CC5)n4)c3c2)c1` [Example 39, 3-(3-(6-(4-amino-1-piperidinyl)-2-pyrazinyl)-1H-indazol-5-yl)-4-fluoro-N-propylbenzamide], for which the IC50 in assay [1] worked out at 4 nM; in assay [2] it was 7 nM; in assay [3] (setting [6]), 1620 nM; in assay [4] (setting [7]) it was 6630 nM; in assay [5], 10 nM.
